ChEMBL document CHEMBL1681739, “KDR inhibitor with the intramolecular non-bonded interaction: conformation-activity relationships of novel indole-3-carboxamide derivatives” (Bioorg Med Chem Lett, 2011)

Tests used:
[1] = molecular target: T1, Vascular endothelial growth factor receptor 2 (Homo sapiens, UniProt P35968); assay: Inhibition of KDR assessed as phosphorylation level of substrate at 10 uM by ELISA
[2] = molecular target: T1, Vascular endothelial growth factor receptor 2; assay: Inhibition of KDR assessed as phosphorylation level of substrate by ELISA

T1 sequence (P35968 whole entry): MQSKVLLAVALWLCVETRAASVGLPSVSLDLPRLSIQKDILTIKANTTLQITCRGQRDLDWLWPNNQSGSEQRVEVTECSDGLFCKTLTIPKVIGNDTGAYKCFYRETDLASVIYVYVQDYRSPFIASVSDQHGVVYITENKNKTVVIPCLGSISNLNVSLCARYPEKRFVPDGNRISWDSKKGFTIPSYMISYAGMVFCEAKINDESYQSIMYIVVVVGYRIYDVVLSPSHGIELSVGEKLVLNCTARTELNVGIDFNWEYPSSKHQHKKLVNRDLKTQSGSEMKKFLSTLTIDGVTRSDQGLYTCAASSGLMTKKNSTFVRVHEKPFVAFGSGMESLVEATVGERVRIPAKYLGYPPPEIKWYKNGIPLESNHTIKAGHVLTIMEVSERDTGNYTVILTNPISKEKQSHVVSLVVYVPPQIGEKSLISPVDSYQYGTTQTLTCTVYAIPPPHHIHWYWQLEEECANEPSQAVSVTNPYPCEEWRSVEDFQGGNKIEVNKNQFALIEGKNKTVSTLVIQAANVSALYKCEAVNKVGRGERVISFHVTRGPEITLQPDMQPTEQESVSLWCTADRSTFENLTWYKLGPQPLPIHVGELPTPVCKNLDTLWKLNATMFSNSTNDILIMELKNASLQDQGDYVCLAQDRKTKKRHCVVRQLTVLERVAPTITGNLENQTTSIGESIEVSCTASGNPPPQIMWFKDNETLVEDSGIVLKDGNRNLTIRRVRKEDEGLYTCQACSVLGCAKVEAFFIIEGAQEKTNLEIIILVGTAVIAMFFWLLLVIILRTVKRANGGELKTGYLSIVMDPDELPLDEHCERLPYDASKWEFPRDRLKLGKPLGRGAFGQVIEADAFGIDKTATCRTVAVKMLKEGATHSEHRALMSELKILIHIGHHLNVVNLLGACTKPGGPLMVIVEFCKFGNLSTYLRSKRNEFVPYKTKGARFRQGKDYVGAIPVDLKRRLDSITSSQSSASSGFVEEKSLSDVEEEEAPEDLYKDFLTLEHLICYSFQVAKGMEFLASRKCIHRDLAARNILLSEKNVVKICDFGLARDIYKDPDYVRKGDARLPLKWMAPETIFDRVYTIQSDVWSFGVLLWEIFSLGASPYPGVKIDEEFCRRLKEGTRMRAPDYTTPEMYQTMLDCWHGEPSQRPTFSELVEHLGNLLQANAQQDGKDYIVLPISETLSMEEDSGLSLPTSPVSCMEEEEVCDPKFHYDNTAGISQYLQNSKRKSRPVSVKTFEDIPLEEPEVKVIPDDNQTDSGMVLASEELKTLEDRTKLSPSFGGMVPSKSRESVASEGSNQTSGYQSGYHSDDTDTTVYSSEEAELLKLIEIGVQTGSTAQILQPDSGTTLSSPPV

inhibition [1] [%]	IC50 [2] [nM]	SMILES
59	–	O=C(Nc1ccc2c(c1)CCC2)c1c[nH]c2cccc(SCc3ccncc3)c12
14	–	O=C(Nc1ccc(OC(F)(F)F)cc1)c1c[nH]c2cccc(NCc3ccncc3)c12
27	–	O=C(Nc1ccc2c(c1)CCC2)c1c[nH]c2cccc(NCc3ccncc3)c12
55	–	O=C(Nc1cc2ccccc2cn1)c1c[nH]c2cccc(NCc3ccncc3)c12
35	–	O=C(Nc1ccc(OC(F)(F)F)cc1)c1c[nH]c2cccc(SCc3ccncc3)c12
18	–	Cc1cccc(NC(=O)c2c[nH]c3cccc(NCc4ccncc4)c23)c1
23	–	O=C(Nc1ccc(Cl)cc1)c1c[nH]c2cccc(NCc3ccncc3)c12
4	–	O=C(Nc1cccc(C(F)(F)F)c1)c1c[nH]c2cccc(OCc3ccncc3)c12
35	–	Cc1cc(C)cc(NC(=O)c2c[nH]c3cccc(SCc4ccncc4)c23)c1
6	–	CC(C)(C)c1ccc(NC(=O)c2c[nH]c3cccc(OCc4ccncc4)c23)cc1
19	–	Cc1cc(C)cc(NC(=O)c2c[nH]c3cccc(NCc4ccncc4)c23)c1
35	–	O=C(Nc1cccc(Cl)c1)c1c[nH]c2cccc(SCc3ccncc3)c12
25	–	O=C(Nc1cccc(C(F)(F)F)c1)c1c[nH]c2cccc(NCc3ccncc3)c12
52	–	Cc1cccc(NC(=O)c2c[nH]c3cccc(SCc4ccncc4)c23)c1
51	–	CC(C)(C)c1ccc(NC(=O)c2c[nH]c3cccc(SCc4ccncc4)c23)cc1
34	–	O=C(Nc1ccc(Cl)cc1)c1c[nH]c2cccc(SCc3ccncc3)c12
9	–	O=C(Nc1ccc(Cl)cc1)c1c[nH]c2cccc(OCc3ccncc3)c12
92	309	O=C(Nc1cccc(C(F)(F)F)c1)c1c[nH]c2cccc(SCc3ccncc3)c12
18	–	O=C(Nc1cccc(Cl)c1)c1c[nH]c2cccc(NCc3ccncc3)c12
74	–	O=C(Nc1cc2ccccc2cn1)c1c[nH]c2cccc(SCc3ccncc3)c12
19	–	O=C(Nc1ccc2c(c1)CCC2)c1c[nH]c2cccc(OCc3ccncc3)c12
25	–	CC(C)(C)c1ccc(NC(=O)c2c[nH]c3cccc(NCc4ccncc4)c23)cc1
